Reference: patent publication US8802712B2, “Pyrazoloquinolines” (Merck Patent GmbH, priority 2010, dated 2014)
Read-outs that look alike come from different tables or passages of the source.

What was measured:
DNA-PK [1] = biological target: T1, DNA-PK (Homo sapiens (Human), UniProt P78527); assay: DNA-PK/Biochemical Assay (FlashPlate kinase assay); conditions: 5 μM ATP, 90 min, room temperature
Method: The kinase assay was carried out in streptavidin-coated […] microtitre FlashPlates®. To this end, 1.5 μg of the DNA-PK/protein complex and 100 ng of biotinylated substrate, such as, for example, […] biotin-NH2 (“biotin-DNA-PK peptide”), in a total volume of 36.5 μl (34.25 mM HEPES/KOH, 7.85 mM Tris-HCl, 68.5 mM KCl, 5 μM ATP, 6.85 mM MgCl2, 0.5 mM EDTA, 0.14 mM EGTA, 0.69 mM DTT, pH 7.4), were incubated at room temperature for 90 min with 500 ng of DNA from calf thymus, 0.1 μCi of 33P-ATP and 1.8% of DMSO per well with or without the test compound. The reaction was stopped using 50 μl/well of 200 mM EDTA. After incubation for a further 30 min at room temperature, the liquid was removed. Each well was washed three times with 100 μl of 0.9% sodium chloride solution. A non-specific reaction (blank value) was determined using 10 μM of a proprietary kinase inhibitor. The radioactivity measurement was carried out by means of a TopCount. IC50 values were calculated in RS1. • Literature: Kashishian et al. (2003) Molecular Cancer Therapeutics 1257.

[2] = test system: colorectal carcinoma cell line HCT116; assay: Cellular Colony Growth Test with X-ray irradiation; type: cell-based; conditions: Homo sapiens, HCT-116, 4.8 Gy X-rays
Method: Cellular Colony Growth Test The colorectal carcinoma cell line HCT116 was cultivated in MEM alpha medium with 10% oif foetal calf serum, 1 mM sodium pyruvate and 2 mM glutamine at 37° C. and 10% CO2. The cells were detached from the base of the culture vessels with the aid of trypsine/EDTA, centrifuged off in centrifuge tubes and taken up in fresh medium. The cell density was subsequently determined. 300 cells were sown out in 6-well cell culture plates in 2 ml of culture medium and cultivated overnight. Next day, the cells were treated with test substances for one hour before the cell culture plates were treated with defined doses of X-rays (in general 0, 2.4, 4.8, 12 Gray; irradiation instrument: Faxitron RX-650; Faxitron X-Ray LLC, USA). In order to determine the dose/effect relationships, the cells were treated with various concentrations of a test substance. After irradiation, the cells are cultivated for a further 24 hours in the presence of the test substance, the culture medium was then replaced with culture medium without test substance, and the cells were cultivated for a further 6-8 days. The cell colonies formed were subsequently stained with the aid of Crystal Violet and counted in a colony counter (Gelcount, Oxford Optronics, UK). Dose/effect curves, in particular IC50 values, were determined using a curve adaptation function for nonlinear dose/effect relationships.

[3] = test system: CHK2 phosphorylation at threonine 68 in HCT116 cells; assay: Cellular CHK2 Phosphorylation at Threonine 68; type: cell-based; conditions: Homo sapiens, HCT-116, 6 h; HCT116, 10 μM bleomycin, six hours, ELISA; read-out: IC50 (CHK2 phospho-threonine 68)
Method: Cellular CHK2 Phosphorylation at Threonine 68
HCT116 cells were cultivated in MEM alpha medium with 10% of foetal calf serum, 1 mM sodium pyruvate and 2 mM glutamine at 37° C. and 10% CO2. The cells were detached from the base of the culture vessels with the aid of trypsine/EDTA, centrifuged off in centrifuge tubes and taken up in fresh medium. The cell density was subsequently determined. 50,000 cells were sown per cavity of a 96-well cell culture plate in 0.1 ml of culture medium and cultivated overnight. Next day, 10 μM bleomycin and test substances in fresh culture medium were added to the cells and these were cultivated for a further six hours. After lysis of the cells, phospho-threonine 68 of the CHK2 kinase was detected in the lysates with the aid of a phospho-CHK2 (Thr68)-specific ELISA detection system (Catalogue No. 7037, Cell Signaling Technologies, USA). The ELISA colour reaction was measured spectrophotometrically at 450 nm. The extinction of the unstimulated controls (vehicle control without bleomycin) was subtracted from the extinction values of the treatment groups. The controls which were treated with bleomycin were set equal to 100% and all other extinction values were set in relation thereto. IC50 values were determined with the aid of the GraphPad Prism statistics program (GraphPad Software, USA) or Assay Explorer (Symyx Technologies Inc., USA).

[4] = test system: kinases of the PI3K isoenzyme family; conditions: cited from earlier work
mammal cells = conditions: in cellular terms; cited from earlier work
DNA-PK [5] = biological target: T1, DNA-PK; conditions: 5.0 mM ATP; cited from earlier work
DNA-PK [6] = biological target: T1, DNA-PK; conditions: ATP-competitive; cited from earlier work

Compound | melting point | IC50 (DNA-PK [1]) [nM] | also measured
COc1cc2c(cc1O)ncc1c2c(-c2ccc(C#N)cc2)nn1C [Compound 4, 4-(7-Hydroxy-8-methoxy-3-methyl-3H-pyrazolo-[3,4-c]quinolin-1-yl)-benzonitrile] | 288.9 °C | < 100 | 
COc1cc2ncc3c(c(-c4ccc(C#N)cc4)nn3C)c2cc1OC(C(N)=O)c1ccc(F)cc1 (centres unmarked) [Compound 8, 2-[1-(4-Cyanophenyl)-7-methoxy-3-methyl-3H-pyrazolo[3,4-c]quinolin-8-yloxy]-2-(4-fluorophenyl)-acetamide] | 249.2 °C | < 100 | 
COc1cc2ncc3c(c(-c4ccc(C#N)cc4)nn3C)c2cc1OCCN(C)C [Compound 40, 4-[8-(2-Dimethylamino-ethoxy)-7-methoxy-3-methyl-3H-pyrazolo[3,4-c]quinolin-1-yl]benzonitrile] | 212.2 °C | > 100 | 
CCN1CCN(CCNC(=O)C(Oc2cc3c(cc2OC)ncc2c3c(-c3ccc(C#N)cc3)nn2C)c2ccc(F)cc2)CC1 (centres unmarked) [Compound 48, 2-[1-(4-Cyano-phenyl)-7-methoxy-3-methyl-3H-pyrazolo-[3,4-c]quinolin-8-yloxy]-N-[2-(4-ethyl-piperazin-1-yl)ethyl]-2-(4-fluorophenyl)-acetamide] | 110 to 112 °C | 100 to 500 | 
CCn1nc(-c2ccc(C#N)cc2)c2c3cc(OC)c(OC)cc3ncc21 [Compound 56, 4-(7,8-Dimethoxy-3-ethyl-3H-pyrazolo[3,4-c]quinolin-1-yl)-benzonitrile] | 227.4 °C | < 100 | 
COc1cc2ncc3[nH]nc(-c4ccc(C#N)c(N5CCCC5)c4)c3c2cc1OC [Compound 70, 4-(7,8-Dimethoxy-3H-pyrazolo[3,4-c]quinolin-1-yl)-2-pyrrolidin-1-yl-benzonitrile] | 291 °C (dec.) | < 100 | 
COc1cc2ncc3c(c(-c4ccc(C#N)cc4F)nn3C)c2cc1OC [Compound 90, 4-(7,8-Dimethoxy-3-methyl-3H-pyrazolo-[3,4-c]quinolin-1-yl)-3-fluorobenzonitrile] |  |  | IC50 [2]: 100 to 500 nM
COc1cc2ncc3c(c(-c4ccc(C#N)cc4F)nn3C)c2cc1OC(C(N)=O)c1ccccc1 (centres unmarked) [Compound 91, 2-[1-(4-Cyano-2-fluoro-phenyl)-7-methoxy-3-methyl-3H-pyrazolo[3,4-c]-quinolin-8-yloxy]-2-phenyl-acetamide] |  |  | IC50 [3]: 100 to 500 nM
CCN1CCN(CC(=O)Nc2ccc(-c3cccc4c(=O)cc(N5CCOCC5)oc34)c3sc4ccccc4c23)CC1 [KU-0060648] |  |  | inhibition of kinases of the PI3K isoenzyme family [4]: potently inhibited
O=c1cc(N2CCOCC2)oc2c(-c3ccccc3)cccc12 [LY294002] |  |  | increase in sensitivity to ionising irradiation (mammal cells): only a weak increase in sensitivity; IC50 (DNA-PK [5]): 1250 nM
O=c1cc(N2CCOCC2)oc2c(-c3cccc4c3sc3ccccc34)cccc12 [NU-7441] |  |  | IC50 (DNA-PK [6]): 20 nM

Now from value to molecule, other results behind:

melting point | IC50 (DNA-PK [1]) [nM] | Compound | also measured
 | < 100 | COc1cc2ncc3c(c(-c4ccc(C#N)cc4F)nn3C)c2cc1-c1cccnc1 [Compound 77, 3-Fluoro-4-(7-methoxy-3-methyl-8-pyridin-3-yl-3H-pyrazolo[3,4-c]-quinolin-1-yl)-benzonitrile] | 
 | < 100 | COc1cc2ncc3c(c(-c4ccc(C#N)cc4F)nn3C)c2cc1-c1cnc2ccccc2c1 [Compound 78, 3-Fluoro-4-(7-methoxy-3-methyl-8-quinolin-3-yl-3H-pyrazolo[3,4-c]-quinolin-1-yl)-benzonitrile] | 
 | < 100 | COc1cc2ncc3c(c(-c4ccc(-c5ccn[nH]5)cc4)nn3C)c2cc1OCc1cncs1 [Compound 79, 7-Methoxy-3-methyl-1-[4-(2H-pyrazol-3-yl)phenyl]-8-(thiazol-5-ylmethoxy)-3H-pyrazolo[3,4-c]quinoline] | 
 | < 100 | COc1cc2ncc3c(c(-c4ccc(-c5ccn[nH]5)cc4)nn3C)c2cc1-c1cn[nH]c1 [Compound 88, 7-Methoxy-3-methyl-8-(1H-pyrazol-4-yl)-1-[4-(2H-pyrazol-3-yl)phenyl]-3H-pyrazolo[3,4-c]quino-line] | 
 | < 100 | COc1cc2ncc3c(c(-c4ccc(C#N)cc4F)nn3C)c2cc1-c1cc[nH]c1 [Compound 89, 3-Fluoro-4-[7-methoxy-3-methyl-8-(1H-pyrrol-3-yl)-3H-pyrazolo[3,4-c]-quinolin-1-yl]-benzonitrile] | 
